{"source": "patent US8263649B2", "about": "“Benzofuran type derivatives, a composition comprising the same for treating or preventing cognitive dysfunction and the use thereof” (Medifron DBT Co., Ltd., priority 2006, dated 2012)", "key": {"ChAT positive neuron": {"test_system": "ChAT positive neuron", "assay": "ChAT antibody staining of brain sections of transgenic mice", "format": "in vivo, mouse", "settings": "FIG. 15", "method": "13 months old dementia model male mice expressing APPswe was used in the experiment and the mice was divided into two groups, i.e., control group consisting of 2 mice and test groups consisting of 4 mice. Each mouse had been fed with the feed mixed with 3 mg of compound IIb everyday for 4 months.\nFour tissue sections per mouse were added to PBST to flocculate and then anti-ChAT was added thereto with a ratio of 1:100. The solution was reacted together for overnight at 4° C. and the tissues were washed with PBST. Secondary antibody (HRP conjugated […] IgG antibody) was added thereto and mixed together with the mixed ratio of 1:1000 at room temperature one hour before the reaction.\nAfter washing again with PBST, the tissues were stained to brown color with DAB kit as a staining agent. The stained tissues were photographed using by optical microscope connecting with […] camera and then the number of the ChAT positive neuron in the tissues was determined."}, "[1]": {"test_system": "ICR mouse administrated aggregated beta amyloid 1-42", "assay": "AD acute model experiment - Y maze test", "format": "in vivo", "method": "For passive avoidance test, male ICR mouse weighing 25 g purchased from Samtaco Co. was bred with five mice per cage and the cage was kept with following condition maintaining the temperature of 22±2° C. and the relative humidity of […] under the regularly controlled light/dark condition with an interval of 12 hours.\nSynthetic beta amyloid 1-42 (BACHEM) was dissolved in DMSO in order to be 250 μm solution and diluted with PBS to […] and aggregated at 37° C. for four days (Passive Avoidance test) or six days (Y maze test).\nAggregated beta amyloid 1-42 was administrated into the mice according to the procedure disclosed in the literature (Lausen & Belknap, J. Pharmacol. Methods, 16 pp 355-357, 1986). […]\nThe Y-maze test was performed two days after the administration of beta-amyloid. […] Thereafter, the entering order of the mice into the pathway was observed and the entering time was determined when four limbs of the mice were entered within the pathway. To determine the spatial memory, the percentage of spontaneous alteration behavior was calculated by applying the measured alteration frequency to following empirical formula 1 and the frequency of actual alteration behavior was assigned once at the time that the mice had entered the three pathways continuously. […]"}}}
{"smiles": "COCCCc1ccc2oc(-c3ccc(OC)c(OC)c3)cc2c1", "note": "[Compound 18b, 2-(3,4-dimethoxy-phenyl)-5-(3-methoxy-propyl)-benzofuran]", "values": [{"measurement": "number of neuron (ChAT positive) in brain", "setting": "ChAT positive neuron", "value": "slightly increased"}, {"measurement": "recovering effect on memory learning capacity damaged by beta-amyloid (Y maze, spontaneous alteration)", "setting": "[1]; mice, oral, 50, 100 and 200 mg/kg, FIG. 2, FIG. 3", "value": "potent recovering effect on memory learning capacity damaged by beta-amyloid in a dose dependent manner"}, {"measurement": "effect on the memory learning capacity (Y maze), best dose group", "setting": "[1]; treatment group with more than 100 mg/kg, FIG. 3", "value": "most excellent effect"}]}
